We go through 21 molecules from patent publication US9187435B2, “Bridged Spiro[2.4]heptane ester derivatives” (Actelion Pharmaceuticals Ltd., priority 2010, dated 2015).

Where a name gives a salt, the structure may show the parent alone.

This experiment deals with T1, human ALX receptor (Homo sapiens, UniProt P25090).
T1 construct: expressed in transfected cells; host or cells: HEK293 (HEK293-hALXR-Gα16)
T1 sequence (P25090 1-351): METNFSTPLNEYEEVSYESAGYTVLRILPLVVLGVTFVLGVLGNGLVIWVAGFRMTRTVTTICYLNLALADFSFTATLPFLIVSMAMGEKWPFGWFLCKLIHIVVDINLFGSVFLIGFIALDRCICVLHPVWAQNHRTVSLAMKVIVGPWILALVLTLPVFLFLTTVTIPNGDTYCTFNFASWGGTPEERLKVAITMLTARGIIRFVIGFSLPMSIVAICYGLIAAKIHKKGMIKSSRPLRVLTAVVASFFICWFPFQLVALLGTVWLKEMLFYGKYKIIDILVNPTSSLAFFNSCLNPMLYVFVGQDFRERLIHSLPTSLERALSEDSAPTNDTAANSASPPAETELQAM
Briefly: Intracellular calcium measurements (FLIPR) in HEK293-hALXR-Gα16 cells, agonistic activity. To be noted: values normalized to WKYMVm 10 nM. It is filed as cell-based. The protocol: The ALX receptor and FPRL2 agonistic activities of the compounds of formula (I) are determined in accordance with the following experimental method.
Intracellular Calcium Measurements:
Cells expressing recombinant human ALX receptor and the G-protein Gα16 (HEK293-hALXR-Gα16) were grown to 80% confluency in Growing Medium (GM). Cells were detached from culture dishes with a cell dissociation buffer (Invitrogen, 13151-014), and collected by centrifugation at 1,000 rpm at rt for 5 min in Assay Buffer (AB) (equal parts of Hank's BSS (Gibco, 14065-049) and DMEM without Phenol Red (Gibco, 11880-028)). After 60 min incubation at 37° C. under 5% CO2 in AB supplemented with 1 μM Fluo-4 (AM) (Invitrogen, F14202), and 20 mM HEPES (Gibco, 15630-056), the cells were washed and resuspended in AB. They were then seeded onto 384-well FLIPR assay plates (Greiner, 781091) at 50,000 cells in 70 μl per well and sedimented by centrifugation at 1,000 rpm for 1 min. Stock solutions of test compounds were made up at a concentration of 10 mM in DMSO, and serially diluted in AB to concentrations required for activation dose response curves. WKYMVm (Phoenix Peptides) was used as a reference agonist. FLIPR384 or FLIPR Tetra instruments (Molecular Devices) were operated according to the manufacturer's standard instructions, adding 4 μl of test compound dissolved at 10 mM in DMSO and diluted prior to the experiment in assay buffer to obtain the desired final concentration. Changes in fluorescence were monitored before and after the addition of test compounds at lex=488 nm and lem=540 nm. Emission peak values above base level after compounds addition were exported after base line subtraction. Values were normalized to high-level control (WKYMVm compound, 10 nM final concentration) after subtraction of the base line value (AB addition).
For the molecule `Cc1cc(CNC(=O)[C@H]2[C@H](C(=O)OCCC3(F)CCNCC3)[C@H]3CC[C@@H]2C32CC2)on1` [Example 49, (1S,2R,3R,4R)-[2-(4-Fluoro-piperidin-4-yl)ethyl 2-(((3-methylisoxazol-5-yl)methyl)carbamoyl)spiro[bicyclo[2.2.1]heptane-7,1′-cyclopropane]-3-carboxylate]], the concentration for a half-maximal effect (EC50) – broadly, the concentration needed to bring the measured effect to its halfway point – was 10.4 nM.
`O=C(OCCCCN1CC[C@H](F)C1)[C@H]1[C@H](C(=O)Nc2ccc(Br)nc2)[C@@H]2CC[C@H]1C21CC1` [Example 53, (1S,2R,3R,4R)-[(S)-4-(3-Fluoropyrrolidin-1-yl)butyl 2-((6-bromopyridin-3-yl)carbamoyl)spiro[bicyclo[2.2.1]heptane-7,1′-cyclopropane]-3-carboxylate]]: the 50% effective concentration (EC50) amounted to 11.9 nM.
On to `O=C(OC1CCNCC1)[C@H]1[C@H](C(=O)Nc2ccc(Br)nc2)[C@@H]2CC[C@H]1C21CC1` [Example 2, (1S,2R,3R,4R)-[Piperidin-4-yl 2-((6-bromopyridin-3-yl)carbamoyl)spiro[bicyclo[2.2.1]heptane-7,1′-cyclopropane]-3-carboxylate]], for which the EC50 is 15.1 nM.
As for `Cc1cc(CNC(=O)[C@H]2[C@H](C(=O)OCCC3CCCNC3)[C@H]3CC[C@@H]2C32CC2)no1` (stereo partly drawn) [Example 17, (1S,2R,3R,4R)-[2-(Piperidin-3-yl)ethyl 2-(((5-methylisoxazol-3-yl)methyl)carbamoyl)spiro[bicyclo[2.2.1]heptane-7,1′-cyclopropane]-3-carboxylate]hydrochloride], the EC50 was 79.4 nM.
The result for `Cc1cc(CNC(=O)[C@H]2[C@H](C(=O)O[C@@H]3CCNC[C@H]3F)[C@H]3CC[C@@H]2C32CC2)on1` (relative stereo) [Example 46, (1S,2R,3R,4R)-[(trans-3-Fluoro-piperidin-4-yl) 2-(((3-methylisoxazol-5-yl)methyl)carbamoyl)spiro[bicyclo[2.2.1]heptane-7,1′-cyclopropane]-3-carboxylate]] reads 9.7 nM.
As to `Cc1cc(CNC(=O)[C@H]2[C@H](C(=O)OCC(C)C)[C@H]3CC[C@@H]2C32CC2)no1` [Example 28, (1S,2R,3R,4R)-[Isobutyl 2-(((5-methylisoxazol-3-yl)methyl)carbamoyl)spiro[bicyclo[2.2.1]heptane-7,1′-cyclopropane]-3-carboxylate]], the EC50 is 734 nM.
As for `Cc1cc(CNC(=O)[C@H]2[C@H](C(=O)OCCCN(C)C)[C@H]3CC[C@@H]2C32CC2)no1` [Example 25, (1S,2R,3R,4R)-[1-Dimethylaminoprop-3-yl 2-(((5-methylisoxazol-3-yl)methyl)carbamoyl)spiro[bicyclo[2.2.1]heptane-7,1′-cyclopropane]-3-carboxylate]], the EC50 was found to be 330 nM.
The figure for `O=C(O[C@H]1CCNC[C@H]1F)[C@H]1[C@H](C(=O)Nc2ccc(Br)nc2)[C@@H]2CC[C@H]1C21CC1` (relative stereo) [Example 74, (1S,2R,3R,4R)-[cis-3-Fluoro-piperidin-4-yl 2-((6-bromopyridin-3-yl)carbamoyl)spiro[bicyclo[2.2.1]heptane-7,1′-cyclopropane]-3-carboxylate]] is 280 nM; for `Cc1cc(CNC(=O)[C@H]2[C@H](C(=O)OCCOCCN3CC[C@H](F)C3)[C@H]3CC[C@@H]2C32CC2)on1` [Example 42, (1S,2R,3R,4R)-[(S)-2-(2-(3-Fluoropyrrolidin-1-yl)ethoxy)ethyl 2-(((3-methylisoxazol-5-yl)methyl)carbamoyl)spiro[bicyclo[2.2.1]heptane-7,1′-cyclopropane]-3-carboxylate]] it is 7.2 nM.
`O=C(OCC[C@H]1CCNC[C@H]1F)[C@H]1[C@H](C(=O)Nc2ccc(Br)nc2)[C@@H]2CC[C@H]1C21CC1` (relative stereo) [Example 38, (1S,2R,3R,4R)-[2-(cis-3-Fluoro-piperidin-4-yl)ethyl 2-((6-bromopyridin-3-yl)carbamoyl)spiro[bicyclo[2.2.1]heptane-7,1′-cyclopropane]-3-carboxylate]]: the 50% effective concentration (EC50) was 1.8 nM.
The result for `Cc1cc(CNC(=O)[C@H]2[C@H](C(=O)OCC[C@@H]3CCCCN3)[C@H]3CC[C@@H]2C32CC2)no1` [Example 20, (1S,2R,3R,4R)-[(S)-2-(Piperidin-2-yl)ethyl 2-(((5-methylisoxazol-3-yl)methyl)carbamoyl)spiro[bicyclo[2.2.1]heptane-7,1′-cyclopropane]-3-carboxylate]hydrochloride] reads 118 nM.
`CN1CCCCC1COC(=O)[C@H]1[C@H](C(=O)Nc2ccc(Br)nc2)[C@@H]2CC[C@H]1C21CC1` (stereo partly drawn) [Example 22, (1S,2R,3R,4R)-[1-Methyl-piperidin-2-ylmethyl 2-((6-bromopyridin-3-yl)carbamoyl)spiro[bicyclo[2.2.1]heptane-7,1′-cyclopropane]-3-carboxylate]]: the EC50 came to 217 nM.
The figure for `O=C(OCCC1(F)CCNCC1)[C@H]1[C@H](C(=O)Nc2ccc(Br)nc2)[C@@H]2CC[C@H]1C21CC1` [Example 40, (1S,2R,3R,4R)-[2-(4-Fluoro-piperidin-4-yl)ethyl 2-((6-bromopyridin-3-yl)carbamoyl)spiro[bicyclo[2.2.1]heptane-7,1′-cyclopropane]-3-carboxylate]] is 4.6 nM; for `Cc1cc(CNC(=O)[C@H]2[C@H](C(=O)OCCOCCN3CC[C@H](F)C3)[C@H]3CC[C@@H]2C32CC2)no1` [Example 34, (1S,2R,3R,4R)-[(S)-2-(2-(3-Fluoropyrrolidin-1-yl)ethoxy)ethyl 2-(((5-methylisoxazol-3-yl)methyl)carbamoyl)spiro[bicyclo[2.2.1]heptane-7,1′-cyclopropane]-3-carboxylate]] it is 21.6 nM; for `Cc1cc(CNC(=O)[C@H]2[C@H](C(=O)O[C@@H]3CCNC3)[C@H]3CC[C@@H]2C32CC2)no1` [Example 19, (1S,2R,3R,4R)-[(R)-Pyrrolidin-3-yl 2-(((5-methylisoxazol-3-yl)methyl)carbamoyl)spiro[bicyclo[2.2.1]heptane-7,1′-cyclopropane]-3-carboxylate]hydrochloride] it is 105 nM.
Turning to `Cc1cc(CNC(=O)[C@H]2[C@H](C(=O)OCCC3CCNCC3)[C@H]3CC[C@@H]2C32CC2)no1` [Example 47, (1S,2R,3R,4R)-[2-(Piperidin-4-yl)ethyl 2-(((5-methylisoxazol-3-yl)methyl)carbamoyl)spiro[bicyclo[2.2.1]heptane-7,1′-cyclopropane]-3-carboxylate]], the EC50 is 9.7 nM.
As to `Cc1cc(CNC(=O)[C@H]2[C@H](C(=O)OCCN(C)C)[C@H]3CC[C@@H]2C32CC2)no1` [Example 27, (1S,2R,3R,4R)-[1-Dimethylaminoeth-2-yl 2-(((5-methylisoxazol-3-yl)methyl)carbamoyl)spiro[bicyclo[2.2.1]heptane-7,1′-cyclopropane]-3-carboxylate]], the EC50 worked out at 585 nM.
The figure for `O=C(OCCN1CCNCC1)[C@H]1[C@H](C(=O)Nc2ccc(Br)nc2)[C@@H]2CC[C@H]1C21CC1` [Example 37, (1S,2R,3R,4R)-[2-(piperazin-1-yl)ethyl 2-((6-bromopyridin-3-yl)carbamoyl)spiro[bicyclo[2.2.1]heptane-7,1′-cyclopropane]-3-carboxylate]dihydrochloride] is 1.4 nM; for `O=C(Nc1ccc(Br)nc1)C1C(C(=O)OCC2CCNCC2)C2CCC1C21CC1` [Example 1, (1S,2R,3R,4R)-[Piperidin-4-ylmethyl 2-((6-bromopyridin-3-yl)carbamoyl)spiro[bicyclo[2.2.1]heptane-7,1′-cyclopropane]-3-carboxylate]] it is 8.1 nM.
Turning to `CN(C)CCCOC(=O)[C@H]1[C@H](C(=O)Nc2ccc(Br)nc2)[C@@H]2CC[C@H]1C21CC1` [Example 21, (1S,2R,3R,4R)-[1-Dimethylaminoprop-3-yl 2-((6-bromopyridin-3-yl)carbamoyl)spiro[bicyclo[2.2.1]heptane-7,1′-cyclopropane]-3-carboxylate]], the concentration for a half-maximal effect (EC50) came to 146 nM.
The figure for `O=C(OCCN1CCCC1=O)[C@H]1[C@H](C(=O)Nc2ccc(Br)nc2)[C@@H]2CC[C@H]1C21CC1` [Example 23, (1S,2R,3R,4R)-[2-(2-Oxopyrrolidin-1-yl)ethyl 2-((6-bromopyridin-3-yl)carbamoyl)spiro[bicyclo[2.2.1]heptane-7,1′-cyclopropane]-3-carboxylate]] is 281 nM.
